Measurements published in patent publication US9371527B2, “Compositions and methods related to protein displacement therapy for myotonic distrophy” (University of Rochester, priority 2006, dated 2016).

Test system: ClC-1 channel
Assay: Whole cell patch clamp of single FDB muscle fibers after morpholino injection/electroporation
Assay type: in vivo, HSA^LR mice
Conditions: for ClC-1 current density: 3-5 days after foot pad injection/electroporation; for ClC-1 deactivation kinetics: 3-5 days after injection, -100 mV
Procedure: Antisense morpholino targeting the 3′ splice junction of ClC-1 exon 7a was injected into foot pad muscle of HSA^LR mice under general anesthesia. Uptake into muscle fibers was enhanced by in vivo electroporation. The morpholino was tagged with fluorescein. 4 days later, individual FDB muscle fibers were isolated. […] As a control, the opposite footpad was injected with morpholino having the inverted sequence. […] The peak current density in HSA^LR mice (center panel) is much lower than in wild-type mice (left panel). However, after morpholino treatment in HSA^LR mice (right panel), the current density is restored to levels that are similar to wild-type mice. […] The antisense morpholino (closed squares) restores chloride current density to normal levels (open circles or triangles).
The dashed lines represent the zero current level. Capacitative currents recorded from each fiber are shown in the insert of each panel (scale bars: vertical, 3 nA; horizontal, 4 ms). Superimposed traces (solid lines) of normalized ClC-1 current deactivation at −100 mV in FDB fibers obtained from invert- (circles) and antisense-treated (squares) HSA^LR mice and antisense-treated WT mice (triangles) fit with a second order exponential (symbols) are shown in the insert to the left hand panel. Note that accelerated ClC-1 deactivation kinetics of FDB fibers obtained from HSA^LR mice is normalized only following treatment with antisense morpholino. […] Smooth curves through each dataset were generated using a modified Boltzmann equation (Lueck, J. D., et al. (2007) J Gen Physiol 129:79-94). […] Mean±s.e.m.; *P<0.05 invert-treated HSA^LR fibers compared to each of the other experimental conditions; t-test. […] Mean±s.d.; n=3 to 7 per group. Antisense morpholino was injected into one TA, invert morpholino was injected into the contralateral TA, and gastrocnemius muscle served as an untreated control. **P<0.0001 for antisense- vs invert-treated control; ANOVA.
Therefore, the effect of AON treatment on ClC-1 channel function was determined Hindlimb foot pads of […] WT and HSA^LR mice were injected/electroporated with carboxyfluorescein-labeled antisense or invert morpholino. Patch clamp analysis was performed three-to-five days after injection, at a time when fibers were still small enough to maintain an effective voltage clamp (Lueck, J. D., et al. (2007) J Gen Physiol 129:79-94). […] Rescue of ClC-1 activity was not due to a shift in channel activation since the voltage dependence of relative channel open probability (Po) was not different between antisense and invert-injected HSA^LR and WT fibers (FIG. 26C).
Delivery of antisense and invert morpholinos into FDB fibers was achieved by injection and electroporation of hindlimb footpads. Briefly, 12-14-day-old HSA^LR mice were anesthetized by intraperitoneal injection of 100 mg/kg ketamine, 10 mg/kg xylazine, and 3 mg/kg acepromazine. Hindlimb foot pads then were injected with bovine hyaluronidase followed 1 hour later with 20 μg (10 μl, 2 μg/μl in PBS) of antisense or invert carboxyfluorescein-labeled morpholino. Uptake of morpholinos was enhanced by electroporation (100 V/cm, 20 pulses at 1 Hz, and 20 ms per pulse) of the foot pad immediately after injection (DiFranco, M., et al. (2006) Protein Expr Purif 47:281-288). Three to five days after injection/electroporation, individual FDB muscle fibers were isolated as previously described (Lueck, J. D., et al. (2007) J Gen Physiol 129:79-94). Brightfield and fluorescence (488 nm excitation) images of single FDB fibers were acquired using a 40× (1.4 NA) objective and a TILL IMAGO QE cooled-CCD camera. […] ClC-1 currents were measured and analyzed in whole cell patch clamp experiments (Hamill, O. P., et al. (1981) Pflugers Arch 391:85-100) using an approach identical to that described in detail elsewhere (Lueck, J. D., et al. (2007) J Gen Physiol 129:79-94). ClC-1 current density (pA/pF) was calculated in order to compare data across fibers of different sizes. […]

In the case of “antisense 1: morpholino 5′-CCAGGCACGGTCTGCAACAGAGAAG-3′ targeting the 3′ splice site of ClC-1 exon 7a (all phosphorodiamidate morpholino (PMO))”, the ClC-1 current density (listed as antisense morpholino) is reported as “restores normal chloride current density”, the ClC-1 current density (listed as morpholino AON) is reported as “rescued to WT values” and the ClC-1 deactivation kinetics (listed as antisense morpholino) is reported as “normalized”. The ClC-1 deactivation kinetics (listed as morpholino AON) was “rescued to WT values” and the “voltage dependence of relative channel open probability (Po)” value (HSA^LR and WT) was “not different”.

With “control morpholino: control morpholino 5′-GAAGAGACAACGTCTGGCACGGACC-3′, the 5′-3′ invert of the 3′ splice site blocker (all phosphorodiamidate morpholino (PMO)) [reference compound]” the ClC-1 current density (listed as invert morpholino) was “not different from those of untreated HSA^LR fibers”, the ClC-1 current density (listed as inverted morpholino) was “markedly reduced” and the ClC-1 deactivation kinetics was “not different from those of untreated HSA^LR fibers”.
